What was measured:
Experiment in all cases: biochemical
Set-up in all cases: DiscoveRx KINOMEscan competition binding, percent of DMSO control signal at 100 nM
Details in all cases: read-out: Fig. 4a / Percent Control / Compound 1; percent of DMSO control, competition binding
LATS2 = LATS2 (Homo sapiens, UniProt Q9NRM7)
NIM1 = molecular target: T1, NIM1 (Homo sapiens, UniProt Q8IY84)
T1 construct: gene NIM1K

CTK = molecular target: T2, CTK (Homo sapiens, UniProt P42679)
T2 construct: gene MATK

AKT1 = AKT1 (Homo sapiens, UniProt P31749)
CSNK1A1L = CSNK1A1L (Homo sapiens, UniProt Q8N752)
TLK1 = TLK1 (Homo sapiens, UniProt Q9UKI8)
PIM3 = PIM3 (Homo sapiens, UniProt Q86V86)
PIP5K2C = molecular target: T3, PIP5K2C (Homo sapiens, UniProt Q8TBX8)
T3 construct: gene PIP4K2C

FLT1 = FLT1 (Homo sapiens, UniProt P17948)
ZAK = molecular target: T4, ZAK (Homo sapiens, UniProt Q9NYL2)
T4 construct: gene MAP3K20

TSSK3 = TSSK3 (Homo sapiens, UniProt Q96PN8)
HUNK = HUNK (Homo sapiens, UniProt P57058)
NEK4 = NEK4 (Homo sapiens, UniProt P51957)
AMPK-alpha1 = molecular target: T5, AMPK-alpha1 (Homo sapiens, UniProt Q13131)
T5 construct: gene PRKAA1

CDC2L2 = molecular target: T6, CDC2L2 (Homo sapiens, UniProt Q9UQ88)
T6 construct: gene CDK11A

FGFR4 = FGFR4 (Homo sapiens, UniProt P22455)
OSR1 = molecular target: T7, OSR1 (Homo sapiens, UniProt O95747)
T7 construct: gene OXSR1

LCK = LCK (Homo sapiens, UniProt P06239)
FLT3(D835H) = FLT3(D835H) (Homo sapiens, UniProt P36888, D835H)
RIPK2 = RIPK2 (Homo sapiens, UniProt O43353)
TGFBR1 = TGFBR1 (Homo sapiens, UniProt P36897)
CDC2L1 = molecular target: T8, CDC2L1 (Homo sapiens, UniProt P21127)
T8 construct: gene CDK11B

GSK3A = GSK3A (Homo sapiens, UniProt P49840)
FLT3(D835Y) = FLT3(D835Y) (Homo sapiens, UniProt P36888, D835Y)
KIT(A829P) = KIT(A829P) (Homo sapiens, UniProt P10721, A829P)
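Also: KINOMEscan kinase panel binding assay, signal normalized between DMSO as 100% and a positive control compound as 0%.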

Sequence of TGFBR1 (P36897 whole entry): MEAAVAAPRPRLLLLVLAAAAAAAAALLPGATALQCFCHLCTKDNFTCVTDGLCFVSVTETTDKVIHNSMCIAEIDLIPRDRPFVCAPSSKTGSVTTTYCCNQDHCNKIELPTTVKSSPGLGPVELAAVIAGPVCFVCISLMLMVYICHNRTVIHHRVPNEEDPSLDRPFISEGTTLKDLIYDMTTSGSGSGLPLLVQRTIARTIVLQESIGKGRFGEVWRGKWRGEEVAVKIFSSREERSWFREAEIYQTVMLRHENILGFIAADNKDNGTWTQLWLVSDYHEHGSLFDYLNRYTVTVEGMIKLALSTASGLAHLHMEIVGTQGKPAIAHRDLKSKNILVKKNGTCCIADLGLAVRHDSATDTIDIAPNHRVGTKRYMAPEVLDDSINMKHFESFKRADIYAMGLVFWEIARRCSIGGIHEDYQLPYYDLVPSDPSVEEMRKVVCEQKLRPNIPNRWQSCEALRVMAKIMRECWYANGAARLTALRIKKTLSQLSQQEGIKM
T2 sequence (P42679 whole entry): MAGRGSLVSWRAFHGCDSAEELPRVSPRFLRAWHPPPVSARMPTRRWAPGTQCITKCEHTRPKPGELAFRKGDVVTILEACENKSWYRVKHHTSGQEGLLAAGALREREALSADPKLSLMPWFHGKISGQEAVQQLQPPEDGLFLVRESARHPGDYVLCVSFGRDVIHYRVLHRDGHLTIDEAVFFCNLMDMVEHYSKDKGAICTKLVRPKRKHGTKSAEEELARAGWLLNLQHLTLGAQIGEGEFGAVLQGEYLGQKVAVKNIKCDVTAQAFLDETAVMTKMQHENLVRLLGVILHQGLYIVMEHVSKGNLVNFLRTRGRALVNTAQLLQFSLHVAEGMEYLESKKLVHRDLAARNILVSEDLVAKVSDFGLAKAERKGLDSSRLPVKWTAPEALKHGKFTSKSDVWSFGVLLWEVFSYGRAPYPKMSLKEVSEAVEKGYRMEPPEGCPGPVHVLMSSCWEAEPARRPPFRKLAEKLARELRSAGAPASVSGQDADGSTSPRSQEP
T7 sequence (O95747 whole entry): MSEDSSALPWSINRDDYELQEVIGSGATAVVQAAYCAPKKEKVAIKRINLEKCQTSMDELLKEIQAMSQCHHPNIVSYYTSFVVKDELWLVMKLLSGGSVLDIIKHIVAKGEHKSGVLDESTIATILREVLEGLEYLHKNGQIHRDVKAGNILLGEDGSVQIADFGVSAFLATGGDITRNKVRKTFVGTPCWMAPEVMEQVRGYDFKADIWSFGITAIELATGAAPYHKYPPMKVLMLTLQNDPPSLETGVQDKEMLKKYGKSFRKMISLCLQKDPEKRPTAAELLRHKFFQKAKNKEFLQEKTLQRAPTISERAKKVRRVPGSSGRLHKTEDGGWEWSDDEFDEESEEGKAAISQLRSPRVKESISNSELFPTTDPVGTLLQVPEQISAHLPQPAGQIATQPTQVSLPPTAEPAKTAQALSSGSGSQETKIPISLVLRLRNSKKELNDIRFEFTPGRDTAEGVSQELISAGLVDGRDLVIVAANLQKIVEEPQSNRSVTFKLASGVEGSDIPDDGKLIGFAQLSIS
T5 sequence (Q13131 whole entry): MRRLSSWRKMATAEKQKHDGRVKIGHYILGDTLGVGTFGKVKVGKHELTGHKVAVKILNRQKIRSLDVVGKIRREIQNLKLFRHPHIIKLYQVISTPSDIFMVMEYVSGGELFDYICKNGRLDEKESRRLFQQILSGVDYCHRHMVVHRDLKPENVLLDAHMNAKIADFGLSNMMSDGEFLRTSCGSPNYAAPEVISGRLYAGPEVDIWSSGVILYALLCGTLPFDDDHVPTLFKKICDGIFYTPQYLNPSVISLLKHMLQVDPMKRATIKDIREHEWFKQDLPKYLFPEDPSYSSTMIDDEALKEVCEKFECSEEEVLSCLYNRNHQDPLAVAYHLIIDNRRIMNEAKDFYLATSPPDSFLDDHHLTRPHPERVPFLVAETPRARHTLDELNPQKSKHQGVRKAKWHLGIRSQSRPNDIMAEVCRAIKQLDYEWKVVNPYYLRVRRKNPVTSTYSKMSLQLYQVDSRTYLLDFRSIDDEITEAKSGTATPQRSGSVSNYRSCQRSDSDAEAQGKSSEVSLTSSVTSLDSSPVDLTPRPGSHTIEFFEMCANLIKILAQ
Sequence of HUNK (P57058 whole entry): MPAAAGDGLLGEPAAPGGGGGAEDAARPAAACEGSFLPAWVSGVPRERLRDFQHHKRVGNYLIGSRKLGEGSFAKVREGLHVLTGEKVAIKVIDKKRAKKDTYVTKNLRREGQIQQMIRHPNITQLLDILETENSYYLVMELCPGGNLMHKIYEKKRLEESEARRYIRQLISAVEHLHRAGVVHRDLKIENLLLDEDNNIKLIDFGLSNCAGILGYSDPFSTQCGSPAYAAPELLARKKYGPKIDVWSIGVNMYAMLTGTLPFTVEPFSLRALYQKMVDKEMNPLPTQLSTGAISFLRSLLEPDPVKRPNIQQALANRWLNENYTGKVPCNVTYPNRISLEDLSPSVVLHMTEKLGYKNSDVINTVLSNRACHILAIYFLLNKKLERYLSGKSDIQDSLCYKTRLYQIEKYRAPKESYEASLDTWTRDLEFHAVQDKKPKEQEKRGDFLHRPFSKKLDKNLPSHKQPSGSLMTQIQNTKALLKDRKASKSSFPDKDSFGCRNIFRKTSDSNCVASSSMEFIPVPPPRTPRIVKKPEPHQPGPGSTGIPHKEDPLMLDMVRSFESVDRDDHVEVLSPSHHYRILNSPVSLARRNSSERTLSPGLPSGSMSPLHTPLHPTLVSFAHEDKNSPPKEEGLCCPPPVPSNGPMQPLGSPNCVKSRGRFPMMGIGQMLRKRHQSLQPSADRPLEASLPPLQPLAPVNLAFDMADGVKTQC
Sequence of TLK1 (Q9UKI8 whole entry): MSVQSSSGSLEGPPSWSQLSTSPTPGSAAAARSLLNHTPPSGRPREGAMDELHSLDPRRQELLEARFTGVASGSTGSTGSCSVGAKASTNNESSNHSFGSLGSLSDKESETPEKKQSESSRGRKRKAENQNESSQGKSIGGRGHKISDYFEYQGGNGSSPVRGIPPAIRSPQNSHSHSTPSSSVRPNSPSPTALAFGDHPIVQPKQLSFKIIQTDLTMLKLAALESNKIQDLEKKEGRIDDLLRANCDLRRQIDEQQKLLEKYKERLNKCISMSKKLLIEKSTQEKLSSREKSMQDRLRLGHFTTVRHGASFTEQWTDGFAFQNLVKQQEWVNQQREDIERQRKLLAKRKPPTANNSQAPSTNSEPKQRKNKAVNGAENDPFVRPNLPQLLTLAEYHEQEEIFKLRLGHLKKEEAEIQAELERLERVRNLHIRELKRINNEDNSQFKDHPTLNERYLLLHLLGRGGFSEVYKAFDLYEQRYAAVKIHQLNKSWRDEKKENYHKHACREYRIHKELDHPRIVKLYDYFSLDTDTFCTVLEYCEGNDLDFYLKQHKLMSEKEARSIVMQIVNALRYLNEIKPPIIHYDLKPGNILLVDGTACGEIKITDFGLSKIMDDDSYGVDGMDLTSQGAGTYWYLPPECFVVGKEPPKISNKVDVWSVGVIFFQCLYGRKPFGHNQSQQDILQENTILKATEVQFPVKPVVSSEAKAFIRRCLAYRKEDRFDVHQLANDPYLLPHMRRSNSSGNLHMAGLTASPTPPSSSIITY
Sequence of GSK3A (P49840 whole entry): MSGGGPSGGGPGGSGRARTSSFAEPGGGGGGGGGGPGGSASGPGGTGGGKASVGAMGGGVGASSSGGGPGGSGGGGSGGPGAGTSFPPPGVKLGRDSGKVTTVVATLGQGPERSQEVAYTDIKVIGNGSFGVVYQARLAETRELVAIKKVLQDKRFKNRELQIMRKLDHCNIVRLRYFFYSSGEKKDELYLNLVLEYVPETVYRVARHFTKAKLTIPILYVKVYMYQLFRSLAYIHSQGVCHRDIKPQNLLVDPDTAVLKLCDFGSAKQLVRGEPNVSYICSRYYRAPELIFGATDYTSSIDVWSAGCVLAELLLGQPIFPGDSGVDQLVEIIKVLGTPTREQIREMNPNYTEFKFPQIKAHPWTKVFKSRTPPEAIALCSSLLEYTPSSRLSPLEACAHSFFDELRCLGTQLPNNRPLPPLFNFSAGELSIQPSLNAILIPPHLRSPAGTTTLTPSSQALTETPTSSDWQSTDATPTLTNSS
Sequence of AKT1 (P31749 whole entry): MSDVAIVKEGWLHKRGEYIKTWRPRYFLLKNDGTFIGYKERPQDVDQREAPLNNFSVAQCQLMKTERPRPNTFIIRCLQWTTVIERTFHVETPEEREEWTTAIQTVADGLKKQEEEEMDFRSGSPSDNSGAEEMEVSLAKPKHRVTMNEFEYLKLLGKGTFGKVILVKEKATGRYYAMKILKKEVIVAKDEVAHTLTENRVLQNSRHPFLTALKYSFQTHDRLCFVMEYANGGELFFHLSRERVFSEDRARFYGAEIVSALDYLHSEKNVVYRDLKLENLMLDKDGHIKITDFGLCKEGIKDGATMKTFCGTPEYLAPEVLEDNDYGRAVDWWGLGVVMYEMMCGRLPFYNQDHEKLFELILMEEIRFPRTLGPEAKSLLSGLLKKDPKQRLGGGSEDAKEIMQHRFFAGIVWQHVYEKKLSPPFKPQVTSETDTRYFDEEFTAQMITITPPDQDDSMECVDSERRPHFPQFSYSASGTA

## Cc1cnc2nc1Nc1cccc(c1)COCc1cc(ccc1OCCN1CCCC1)N2 [Compound 1]
LATS2
  remaining binding at 0.1 µM: 100%
NIM1
  remaining binding at 0.1 µM: 99%
CTK
  remaining binding at 0.1 µM: 97%
AKT1
  remaining binding at 0.1 µM: 100%
CSNK1A1L
  remaining binding at 0.1 µM: 61%
TLK1
  remaining binding at 0.1 µM: 100%
PIM3
  remaining binding at 0.1 µM: 100%
PIP5K2C
  remaining binding at 0.1 µM: 76%
FLT1
  remaining binding at 0.1 µM: 100%
ZAK
  remaining binding at 0.1 µM: 100%
TSSK3
  remaining binding at 0.1 µM: 78%
HUNK
  remaining binding at 0.1 µM: 100%
NEK4
  remaining binding at 0.1 µM: 79%
AMPK-alpha1
  remaining binding at 0.1 µM: 100%
CDC2L2
  remaining binding at 0.1 µM: 94%
FGFR4
  remaining binding at 0.1 µM: 97%
OSR1
  remaining binding at 0.1 µM: 66%
LCK
  remaining binding at 0.1 µM: 72%
FLT3(D835H)
  remaining binding at 0.1 µM: 46%
RIPK2
  remaining binding at 0.1 µM: 99%
TGFBR1
  remaining binding at 0.1 µM: 94%
CDC2L1
  remaining binding at 0.1 µM: 96%
GSK3A
  remaining binding at 0.1 µM: 100%
FLT3(D835Y)
  remaining binding at 0.1 µM: 14%
KIT(A829P)
  remaining binding at 0.1 µM: 45%
